{
  "source": "patent US4363807A",
  "about": "“Cepham compounds” (Fujisawa Pharmaceutical Company, Limited, priority 1978, dated 1982)",
  "key": {"Proteus mirabilis 18": {"tested_on": "Proteus mirabilis 18", "assay": "In vitro antibacterial activity, two-fold agar-plate dilution method (MIC), Proteus mirabilis 18", "assay_type": "cell-based", "details": "heart infusion agar, 37° C., 20 hours, read-out: MIC (minimal inhibitory concentration)", "procedure": "(§1) 1. In vitro antibacterial activity: (1) Test method: In vitro antibacterial activity was determined by the two-fold agar-plate dilution method as described below. One loopful of an overnight culture of each test strain in Trypticase soy broth was streaked on heart infusion agar (HI-agar) containing graded concentration of the test compound and incubated at 37° C. for 20 hours. The minimal inhibitory concentration (MIC) was expressed in μg/ml."}, "Klebsiella pneumoniae 20": {"tested_on": "Klebsiella pneumoniae 20", "assay": "In vitro antibacterial activity, two-fold agar-plate dilution method (MIC), Klebsiella pneumoniae 20", "assay_type": "cell-based", "details": "heart infusion agar, 37° C., 20 hours, read-out: MIC (minimal inhibitory concentration)", "procedure": "as §1"}},
  "data": [
    {"compound": "CO/N=C(\\C(=O)NC1C(=O)N2C(C(=O)O)C(=COC(C)=O)CSC12)c1csc(N)n1", "note": "(stereo not drawn) [Test compound, 7-[2-(2-Aminothiazol-4-yl)-2-methoxyiminoacetamido]-3-acetoxymethylenecepham-4-carboxylic acid (syn isomer)]", "values": [
      {"measurement": "MIC", "setting": "Proteus mirabilis 18", "value": 6.25, "unit": "µg/mL"},
      {"measurement": "MIC", "setting": "Klebsiella pneumoniae 20", "value": 6.25, "unit": "µg/mL"}
    ]}
  ]
}
